According to US4246342A, “Process for the manufacture of pyruvate oxidase, and analytical method and kit for the use of the same” (Toyo Jozo Kabushiki Kaisha, priority 1978, dated 1981):

What was measured:
[1] = tested on: pyruvate oxidase (B-0668); experiment: Effect of elimination of a substance from the assay system on the enzyme activity; format: biochemical, Streptococcus sp. B-0668; conditions: enzyme from B-0668, no elimination = 100, 0.1 M dimethylglutarate-NaOH buffer for phosphate elimination
Protocol: (§1) (b) Effect of elimination of the following substance from the assay system on the enzyme activity is shown below. 0.1 M dimethylglutarate-NaOH buffer is used in the case of phosphate elimination.
(§2) The assay method of pyruvate oxidase of the present invention uses a reaction mixture as follows: […]
(§3) The above reaction mixture (1.0 ml) is pre-incubated at 37° C. for 3 minutes. To this solution is added the enzyme solution (20 μl) and incubated at 37° C. for 10 minutes. 0.1 M citrate buffer (pH 6.0, 2 ml) containing 0.1 M EDTA is added to stop the reaction. The violet color formed is measured by colorimetric method at 565 nm.
(§4) A unit (1 unit, 1 U) of enzyme activity is defined as the activity which generates 1 μmole of hydrogen peroxide per minute.

[2] = tested on: pyruvate oxidase (B-0667); experiment: as above; format: biochemical, Pediococcus sp. B-0667; conditions: enzyme from B-0667, no elimination = 100, 0.1 M dimethylglutarate-NaOH buffer for phosphate elimination
Protocol: as §1, §2, §3, §4

[3] = biological target: T1, pyruvate oxidase (IFO-12219) (Aerococcus viridans, UniProt A0ABP2I6X2); experiment: as above; format: biochemical, Aerococcus viridans IFO-12219; conditions: enzyme from IFO-12219, no elimination = 100, 0.1 M dimethylglutarate-NaOH buffer for phosphate elimination
T1 sequence (A0ABP2I6X2 1-592): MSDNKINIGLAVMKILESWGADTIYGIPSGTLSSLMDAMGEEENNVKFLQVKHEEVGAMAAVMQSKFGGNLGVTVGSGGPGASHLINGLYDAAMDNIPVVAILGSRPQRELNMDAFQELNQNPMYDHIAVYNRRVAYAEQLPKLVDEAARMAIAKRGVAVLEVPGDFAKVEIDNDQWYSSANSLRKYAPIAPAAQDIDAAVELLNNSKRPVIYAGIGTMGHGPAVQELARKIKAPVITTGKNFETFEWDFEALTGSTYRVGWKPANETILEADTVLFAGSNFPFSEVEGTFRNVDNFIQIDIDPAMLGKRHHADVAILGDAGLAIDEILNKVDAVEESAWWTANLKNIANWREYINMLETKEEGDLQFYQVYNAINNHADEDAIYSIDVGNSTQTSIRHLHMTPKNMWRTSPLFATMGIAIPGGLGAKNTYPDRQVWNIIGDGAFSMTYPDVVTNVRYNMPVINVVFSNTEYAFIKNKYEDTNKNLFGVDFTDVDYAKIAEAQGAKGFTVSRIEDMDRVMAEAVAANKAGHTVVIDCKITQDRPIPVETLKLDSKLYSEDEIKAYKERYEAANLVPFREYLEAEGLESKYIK
Protocol: as §1, §2, §3, §4

[4] = tested on: pyruvate oxidase; experiment: Effect of substances on the enzyme, summary statements for the four strains; format: biochemical; conditions: summary in words; for Requirement of the enzyme for the substance (cofactor / substrate): elimination from the assay system; for Effect on the enzyme (inhibited / activated): 5 mM substance
Protocol: (§5) (a) Effect of several substances on the enzyme activity is examined by adding 5 mM of the substance indicated below instead of MgCl2 in the assay system.
0.1 M dimethylglutarate-NaOH buffer is used in the case of phosphate elimination.
The assay method of pyruvate oxidase of the present invention uses a reaction mixture as follows:
as §3

[5] = tested on: pyruvate oxidase (B-0667); experiment: Effect of several substances added on the enzyme activity; format: biochemical, Pediococcus sp. B-0667; conditions: 5 mM of the substance added instead of MgCl2 in the assay system; enzyme from B-0667; MgCl2 = 100
Protocol: as §5, §2, §3, §4

[6] = biological target: T1, pyruvate oxidase (IFO-12219); experiment: as above; format: biochemical, Aerococcus viridans IFO-12219; conditions: 5 mM of the substance added instead of MgCl2 in the assay system; enzyme from IFO-12219; MgCl2 = 100
Protocol: as §5, §2, §3, §4

[7] = tested on: pyruvate oxidase (B-0668); experiment: as above; format: biochemical, Streptococcus sp. B-0668; conditions: 5 mM of the substance added instead of MgCl2 in the assay system; enzyme from B-0668; MgCl2 = 100
Protocol: as §5, §2, §3, §4

[8] = biological target: T2, pyruvate oxidase (IFO-12317) (Aerococcus viridans, UniProt A0ABP2I6X2); experiment: as above; format: biochemical, Aerococcus viridans IFO-12317; conditions: 5 mM of the substance added instead of MgCl2 in the assay system; enzyme from IFO-12317; MgCl2 = 100
T2 sequence (A0ABP2I6X2 1-592): T1 sequence (A0ABP2I6X2 1-592)
Protocol: as §5, §2, §3, §4

[9] = biological target: T2, pyruvate oxidase (IFO-12317); experiment: Effect of elimination of a substance from the assay system on the enzyme activity; format: biochemical, Aerococcus viridans IFO-12317; conditions: enzyme from IFO-12317, no elimination = 100, 0.1 M dimethylglutarate-NaOH buffer for phosphate elimination
Protocol: as §1, §2, §3, §4

**Q.** What does the source list for `Cc1ncc(C[n+]2csc(CCO[P@](=O)(O)OP(=O)(O)O)c2C)c(N)n1` [Thiaminepyrophosphate, thiamine pyrophosphate]?
**A.** Relative activity (%), substance eliminated [1]: 0%; Relative activity (%), substance eliminated [2]: 0%; Relative activity (%), substance eliminated [3]: 0%; Requirement of the enzyme for the substance (cofactor / substrate) [4]: requires

**Q.** Which results are given for `O=C(O)CN(CCN(CC(=O)O)CC(=O)O)CC(=O)O` [EDTA, ethylene-diaminetetraacetic acid]?
**A.** Relative activity (%) [5]: 0%; Relative activity (%) [6]: 0%; Relative activity (%) [7]: 0%; Effect on the enzyme (inhibited / activated) [4]: inhibited

**Q.** Which “Relative activity (%)” value [5] does the source give for `[Cl-].[Cl-].[Co+2]` [CoCl2] here?
**A.** 81.3%

**Q.** And the “Relative activity (%)” value [6]?
**A.** 85.0%

**Q.** What about the “Relative activity (%)” value [8] of the same compound?
**A.** 84.0%

**Q.** And the “Relative activity (%)” value [7]?
**A.** 81.1%

**Q.** And the “Effect on the enzyme (inhibited / activated)” value [4]?
**A.** activated

**Q.** Which “Relative activity (%)” value [5] does the source give for `[Cl-].[Cl-].[Zn+2]` [ZnCl2] here?
**A.** 16.0%

**Q.** What about the “Relative activity (%)” value [6] of the same compound?
**A.** 14.9%

**Q.** What about the “Relative activity (%)” value [8] of the same compound?
**A.** 22.8%

**Q.** What about the “Relative activity (%)” value [7] of the same compound?
**A.** 38.2%

**Q.** Which results are given for phosphate?
**A.** Relative activity (%), substance eliminated [1]: 0%; Relative activity (%), substance eliminated [2]: 0%; Relative activity (%), substance eliminated [9]: 0%; Relative activity (%), substance eliminated [3]: 0%; Requirement of the enzyme for the substance (cofactor / substrate) [4]: requires

**Q.** With `[Cl][Mn][Cl]` [MnCl2] as the compound, how does the “Relative activity (%)” value [5] read?
**A.** 129.1%

**Q.** And the “Relative activity (%)” value [6]?
**A.** 116.2%

**Q.** What about the “Relative activity (%)” value [8] of the same compound?
**A.** 111.0%

**Q.** What about the “Relative activity (%)” value [7] of the same compound?
**A.** 102.7%

**Q.** What about the “Effect on the enzyme (inhibited / activated)” value [4] of the same compound?
**A.** activated

**Q.** With `[Ba+2].[Cl-].[Cl-]` [BaCl2] as the compound, how does the “Relative activity (%)” value [5] read?
**A.** 20.6%

**Q.** What about the “Relative activity (%)” value [6] of the same compound?
**A.** 23.9%

**Q.** What about the “Relative activity (%)” value [8] of the same compound?
**A.** 28.8%

**Q.** What about the “Relative activity (%)” value [7] of the same compound?
**A.** 58.8%

**Q.** How did the “Relative activity (%)” value [5] turn out when `[Ca+2].[Cl-].[Cl-]` [CaCl2] was run?
**A.** 69.4%

**Q.** And the “Relative activity (%)” value [6]?
**A.** 83.4%

**Q.** And the “Relative activity (%)” value [8]?
**A.** 78.7%

**Q.** What about the “Relative activity (%)” value [7] of the same compound?
**A.** 75.0%

**Q.** What about the “Effect on the enzyme (inhibited / activated)” value [4] of the same compound?
**A.** activated

**Q.** With `[Cl-].[Cl-].[Mg+2]` [MgCl2] as the compound, how does the “Relative activity (%)” value [5] read?
**A.** 100%

**Q.** What about the “Relative activity (%)” value [6] of the same compound?
**A.** 100%

**Q.** And the “Relative activity (%)” value [8]?
**A.** 100%

**Q.** What about the “Relative activity (%)” value [7] of the same compound?
**A.** 100%

**Q.** What about the “Effect on the enzyme (inhibited / activated)” value [4] of the same compound?
**A.** activated

**Q.** `Cc1cc2nc3c(=O)[nH]c(=O)nc-3n(C[C@H](O)[C@H](O)[C@H](O)COP(=O)(O)OP(=O)(O)OC[C@H]3O[C@@H](n4cnc5c(N)ncnc54)[C@H](O)[C@@H]3O)c2cc1C` [FAD, flavin adenine dinucleotide] was tested. Which “Relative activity (%), substance eliminated” value [1] did it give?
**A.** 100%

**Q.** What about the “Relative activity (%), substance eliminated” value [2] of the same compound?
**A.** 33.9%

**Q.** And the “Relative activity (%), substance eliminated” value [3]?
**A.** 32.7%

**Q.** What about the “Requirement of the enzyme for the substance (cofactor / substrate)” value [4] of the same compound?
**A.** requires
